Measured values published in patent US20070232615A1, “Chemical Compounds” (priority 2004, published 2007).

These compounds were tested on HIV (assay: HOS HIV infectivity assay (Table 2, strain not given)). Conditions: Human immunodeficiency virus 1, read-out: Activity Level.
Assay type: cell-based
Protocol: HOS HIV-1 Infectivity Assay
Compounds were profiled against two HIV-1 viruses, the M-tropic (CCR5 utilizing) Ba-L strain and the T-tropic (CXCR4 utilizing) IIIB strain. Both viruses were propagated in human peripheral blood lymphocytes. Compounds were tested for there ability to block infection of the HOS cell line (expressing hCXCR4/hCCR5/hCD4/pHIV-LTR-luciferase) by either HIV-1 Ba-L or HIV-1 IIIB. Compound cytotoxicity was also examined in the absence of virus addition.
HOS HIV-1 Infectivity Assay Format
HOS cells (expressing hCXCR4/hCCR5/hCD4/pHIV-LTR-luciferase) were harvested and diluted in Dulbeccos modified Eagles media supplemented with 2% FCS and non-essential amino acid to a concentration of 60,000 cells/ml. The cells were plated into 96-well plates (100 ul per well) and the plates were placed in a tissue culture incubator (37° C.; 5% CO2/95% air) for a period of 24 h.
Subsequently, 50 ul of the desired drug solution (4 times the final concentration) was added to each well and the plates were returned to the tissue culture incubator (37° C.; 5% CO2/95% air) for 1 h. Following this incubation 50 ul of diluted virus was added to each well (approximately 2 million RLU per well of virus). The plates were returned to the tissue culture incubator (37° C.; 5% CO2/95% air) and were incubated for a further 96 h.
Following this incubation the endpoint for the virally infected cultures was quantified following addition of Steady-Glo Luciferase assay system reagent (Promega, Madison, Wis.). Cell viability or non-infected cultures was measured using a CellTiter-Glo luminescent cell viability assay system (Promega, Madison, Wis.). All luminescent readouts are performed on a Topcount luminescence detector (Packard, Meridien, Conn.).

Structure (SMILES)	IC50
CN(Cc1cn2c(N3CCOCC3)cccc2n1)C1CCCc2cccnc21 (stereo not shown) [Example 20, N-Methyl-N-{[5-(4-morpholinyl)imidazo[1,2-a]pyridin-2-yl]methyl}-5,6,7,8-tetrahydro-8-quinolinamine]	500 to 10000 nM
CC(C)N(Cc1cn2c(N3CCNCC3)cccc2n1)C1CCCc2cccnc21 (stereo not shown) [Example 21, N-(1-Methylethyl)-N-{[5-(1-piperazinyl)imidazo[1,2-a]pyridin-2-yl]methyl}-5,6,7,8-tetrahydro-8-quinolinamine]	< 100 nM
FC(F)(F)CN(Cc1cn2c(N3CCNCC3)cccc2n1)C1CCCc2cccnc21 (stereo not shown) [Example 22, N-{[5-(1-piperazinyl)imidazo[1,2-a]pyridin-2-yl]methyl}-N-(2,2,2-trifluoroethyl)-5,6,7,8-tetrahydro-8-quinolinamine]	100 to 500 nM
CN(Cc1cn2c(N3CC[C@@H](N(C)C)C3)cccc2n1)C1CCCc2cccnc21 (stereo partly drawn) [Example 23, N-({5-[(3R)-3-(Dimethylamino)-1-pyrrolidinyl]imidazo[1,2-a]pyridin-2-yl}methyl)-N-methyl-5,6,7,8-tetrahydro-8-quinolinamine]	< 100 nM
CN(Cc1cn2c(N3CC[C@H](N(C)C)C3)cccc2n1)C1CCCc2cccnc21 (stereo partly drawn) [Example 24, N-({5-[(3S)-3-(Dimethylamino)-1-pyrrolidinyl]imidazo[1,2-a]pyridin-2-yl}methyl)-N-methyl-5,6,7,8-tetrahydro-8-quinolinamine]	< 100 nM
CN(Cc1cn2c(N3CC(N)C3)cccc2n1)C1CCCc2cccnc21 (stereo not shown) [Example 25, N-{[5-(3-Amino-1-azetidinyl)imidazo[1,2-a]pyridin-2-yl]methyl}-N-methyl-5,6,7,8-tetrahydro-8-quinolinamine]	< 100 nM
CN(C)C1CN(c2cccc3nc(CN(C)C4CCCc5cccnc54)cn23)C1 (stereo not shown) [Example 26, N-({5-[3-(Dimethylamino)-1-azetidinyl]imidazo[1,2-a]pyridin-2-yl}methyl)-N-methyl-5,6,7,8-tetrahydro-8-quinolinamine]	100 to 500 nM
CN(Cc1cn2c(N3CC[C@@H](N)C3)cccc2n1)C1CCCc2cccnc21 (stereo partly drawn) [Example 27, N-({5-[(3R)-3-Amino-1-pyrrolidinyl]imidazo[1,2-a]pyridin-2-yl}methyl)-N-methyl-5,6,7,8-tetrahydro-8-quinolinamine]	< 100 nM
CN1CCC(N(C)c2cccc3nc(CN(C)C4CCCc5cccnc54)cn23)CC1 (stereo not shown) [Example 28, N-Methyl-N-({5-[methyl(1-methyl-4-piperidinyl)amino]imidazo[1,2-a]pyridin-2-yl}methyl)-5,6,7,8-tetrahydro-8-quinolinamine]	100 to 500 nM
CN1CCC(N(C)c2cccc3nc(CN(C)C4CCCc5cccnc54)cn23)C1 (stereo not shown) [Example 29, N-Methyl-N-({5-[methyl(1-methyl-3-pyrrolidinyl)amino]imidazo[1,2-a]pyridin-2-yl}methyl)-5,6,7,8-tetrahydro-8-quinolinamine]	< 100 nM
CN(Cc1cn2c(N3CCCNCC3)cccc2n1)C1CCCc2cccnc21 (stereo not shown) [Example 30, N-{[5-(Hexahydro-1H-1,4-diazepin-1-yl)imidazo[1,2-a]pyridin-2-yl]methyl}-N-methyl-5,6,7,8-tetrahydro-8-quinolinamine]	< 100 nM
CN1CCCN(c2cccc3nc(CN(C)C4CCCc5cccnc54)cn23)CC1 (stereo not shown) [Example 31, N-Methyl-N-{[5-(4-methylhexahydro-1H-1,4-diazepin-1-yl)imidazo[1,2-a]pyridin-2-yl]methyl}-5,6,7,8-tetrahydro-8-quinolinamine]	< 100 nM
CN(C)CCN1CCN(c2cccc3nc(CN(C)C4CCCc5cccnc54)cn23)CC1 (stereo not shown) [Example 32, N-[(5-{4-[2-(Dimethylamino)ethyl]-1-piperazinyl}imidazo[1,2-a]pyridin-2-yl)methyl]-N-methyl-5,6,7,8-tetrahydro-8-quinolinamine]	100 to 500 nM
COCCN1CCN(c2cccc3nc(CN(C)C4CCCc5cccnc54)cn23)CC1 (stereo not shown) [Example 33, N-Methyl-N-[(5-{4-[2-(methyloxy)ethyl]-1-piperazinyl}imidazo[1,2-a]pyridin-2-yl)methyl]-5,6,7,8-tetrahydro-8-quinolinamine]	< 100 nM
CN1CCN(c2cccc3nc(CN(C4CC4)C4CCCc5cccnc54)cn23)CC1 (stereo not shown) [Example 34, N-Cyclopropyl-N-{[5-(4-methyl-1-piperazinyl)imidazo[1,2-a]pyridin-2-yl]methyl}-5,6,7,8-tetrahydro-8-quinolinamine]	< 100 nM
CNC1CCN(c2cccc3nc(CN(C)C4CCCc5cccnc54)cn23)CC1 (stereo not shown) [Example 36, N-Methyl-N-({5-[4-(methylamino)-1-piperidinyl]imidazo[1,2-a]pyridin-2-yl}methyl)-5,6,7,8-tetrahydro-8-quinolinamine]	< 100 nM

Structure (SMILES)	IC50
CN(Cc1cn2c(N3CCC(N)CC3)cccc2n1)C1CCCc2cccnc21 (stereo not shown) [Example 37, N-{[5-(4-Amino-1-piperidinyl)imidazo[1,2-a]pyridin-2-yl]methyl}-N-methyl-5,6,7,8-tetrahydro-8-quinolinamine]	< 100 nM
CN(C)C1CCN(c2cccc3nc(CN(C)C4CCCc5cccnc54)cn23)CC1 (stereo not shown) [Example 38, N-({5-[4-(Dimethylamino)-1-piperidinyl]imidazo[1,2-a]pyridin-2-yl}methyl)-N-methyl-5,6,7,8-tetrahydro-8-quinolinamine]	< 100 nM
CN1CCN(c2cccc3nc(CNC4CCCc5cccnc54)cn23)CC1 (stereo not shown) [Example 39, N-{[5-(4-Methyl-1-piperazinyl)imidazo[1,2-a]pyridin-2-yl]methyl}-5,6,7,8-tetrahydro-8-quinolinamine]	< 100 nM
CN(Cc1cn2c(-c3cccnc3)cccc2n1)C1CCCc2cccnc21 (stereo not shown) [Example 40, N-Methyl-N-{[5-(3-pyridinyl)imidazo[1,2-a]pyridin-2-yl]methyl}-5,6,7,8-tetrahydro-8-quinolinamine]	500 to 10000 nM
CN(C)Cc1cccc(-c2cccc3nc(CN(C)C4CCCc5cccnc54)cn23)c1 (stereo not shown) [Example 41, N-[(5-{3-[(Dimethylamino)methyl]phenyl}imidazo[1,2-a]pyridin-2-yl)methyl]-N-methyl-5,6,7,8-tetrahydro-8-quinolinamine]	100 to 500 nM
CN(C)Cc1ccccc1-c1cccc2nc(CN(C)C3CCCc4cccnc43)cn12 (stereo not shown) [Example 42, N-[(5-{2-[(Dimethylamino)methyl]phenyl}imidazo[1,2-a]pyridin-2-yl)methyl]-N-methyl-5,6,7,8-tetrahydro-8-quinolinamine]	100 to 500 nM
CN(Cc1cn2c(N)cccc2n1)C1CCCc2cccnc21 (stereo not shown) [Example 43, N-[(5-Aminoimidazo[1,2-a]pyridin-2-yl)methyl]-N-methyl-5,6,7,8-tetrahydro-8-quinolinamine]	100 to 500 nM
CN(Cc1cn2c(NC(=O)c3cccnc3)cccc2n1)C1CCCc2cccnc21 (stereo not shown) [Example 44, N-(2-{[Methyl(5,6,7,8-tetrahydro-8-quinolinyl)amino]methyl}imidazo[1,2-a]pyridin-5-yl)-3-pyridinecarboxamide]	500 to 10000 nM
CN(Cc1cn2c(NC(=O)c3ccncc3)cccc2n1)C1CCCc2cccnc21 (stereo not shown) [Example 45, N-(2-{[Methyl(5,6,7,8-tetrahydro-8-quinolinyl)amino]methyl}imidazo[1,2-a]pyridin-5-yl)-4-pyridinecarboxamide]	500 to 10000 nM
CN1CCN(c2cccc3nc(CN(C)C4CCc5cccnc54)cn23)CC1 (stereo not shown) [Example 46, N-Methyl-N-{[5-(4-methyl-1-piperazinyl)imidazo[1,2-a]pyridin-2-yl]methyl}-6,7-dihydro-5H-cyclopenta[b]pyridin-7-amine]	< 100 nM
CN1CCN(c2cccc3nc(CN(C)C4CCCCc5cccnc54)cn23)CC1 (stereo not shown) [Example 47, N-Methyl-N-{[5-(4-methyl-1-piperazinyl)imidazo[1,2-a]pyridin-2-yl]methyl}-6,7,8,9-tetrahydro-5H-cyclohepta[b]pyridin-9-amine]	< 100 nM
COc1ccc([C@H](C)N(Cc2cn3c(N4CCN(C)CC4)cccc3n2)[C@H]2CCCc3cccnc32)cc1 [Example 48, (8S)—N-{(1S)-1-[4-(Methyloxy)phenyl]ethyl}-N-{[5-(4-methyl-1-piperazinyl)imidazo[1,2-a]pyridin-2-yl]methyl}-5,6,7,8-tetrahydro-8-quinolinamine]	100 to 500 nM
CN1CCN(c2cccc3nc(CN(C)[C@H]4CCCc5cccnc54)cn23)CC1 [Example 50, (8S)—N-Methyl-N-{[5-(4-methyl-1-piperazinyl)imidazo[1,2-a]pyridin-2-yl]methyl}-5,6,7,8-tetrahydro-8-quinolinamine]	< 100 nM
CN1CCN(c2cccc3nc(CN(C)[C@@H]4CCCc5cccnc54)cn23)CC1 [Example 52, (8R)—N-Methyl-N-{[5-(4-methyl-1-piperazinyl)imidazo[1,2-a]pyridin-2-yl]methyl}-5,6,7,8-tetrahydro-8-quinolinamine]	< 100 nM
CC(C)CN(Cc1cn2c(N3CCN(C)CC3)cccc2n1)[C@H]1CCCc2cccnc21 [Example 53, (8S)—N-{[5-(4-Methyl-1-piperazinyl)imidazo[1,2-a]pyridin-2-yl]methyl}-N-(2-methylpropyl)-5,6,7,8-tetrahydro-8-quinolinamine]	< 100 nM
